In patent US20070037848A1, “Treatment of neurological conditions” (priority 2003, published 2007):
“Also recorded” adds a separate entry of the source.

Tests used:
plasma Zn = assay: Phase II clinical trial: plasma zinc; assay type: in vivo, human
Experimental: (§1) Screening procedures consisted of a full medical history, full physical, neurological and ophthalmic examination, blood and urine tests and psychometric tests (ADAS-Cog, MMSE) to confirm the patient's eligibility for the study. Nerve conduction tests and visual evoked responses were conducted between the screening and baseline visits to provide a baseline measurement and to exclude patients with undiagnosed peripheral neuropathies or visual disturbances. Blood was collected for ApoE allotyping and determination of baseline plasma levels of CQ, metals and Aβ prior to randomization.
(§2) The primary efficacy variable was a change in the baseline score on the AD Assessment Scale (ADAS), which was conducted at baseline and at weeks 4, 12, 24 and 36. This readout was chosen for comparability of treatment effects with current therapeutic agents, such as donepezil, for which efficacy trials also used ADAS as their primary outcome measure (Rogers et al., Neurology 50: 136-145, 1998). Although numerous neuropsychological tests could be considered as secondary measures, it was necessary to avoid fatiguing the subjects at review. Therefore the only other cognitive test performed was the Mini-Mental State Exam (MMSE), which is well characterized and easily implemented. […]

Aβ accumulation = settings: cited from earlier work
[1] = tested on: patients with probable AD; assay: Phase II clinical trial of clioquinol: cognitive function (ADAS-Cog); assay type: in vivo, human; settings: for increase in ADAS-Cog scores: CQ group
Experimental: On the basis of the pre-clinical data, a Phase II clinical trial was prepared of CQ for the treatment of AD. Inclusion criteria for this Phase II study targeted a region on the ADAS-cog scale (20-45) where patients are moderately demented, still living at home, but anticipating an accelerated deterioration as part of the natural history of AD, over the next 12 months. Because the primary outcome was efficacy, a triple-blind design was chosen.
Criteria for inclusion in the study were:— • (a) informed consent; • (b) a diagnosis of probable AD by NINCDS-ADRDA criteria (McKhann et al., Neurology 34: 939-944, 1984); • (c) AD Assessment Scale-Cognitive (ADAS-Cog) score of 20-45 inclusive (Rosen et al., Am. J. Psychiatry 141: 1356-1364, 1984); • (d) Mini Mental State Examination (MMSE) score of 10-24 inclusive (Folstein et al., J. Psychiatr. Res. 12: 189-198, 1975); • (e) on donepezil hydrochloride 5 mg or 10 mg for at least six months; • (f) relative or carer willing and able to support the trial; • (g) able to complete trial examinations; and • (h) primary sensorial functions intact.
The study was a triple blind, placebo-controlled, randomized design. Thirty-six patients and their carers were recruited to participate, with patients being randomized to receive either CQ or placebo; there were 18 patients in each arm. The duration of the study was 36 weeks. CQ dosage was 125 mg twice daily from weeks 0-12, increased to 250 mg twice daily from weeks 13-24, and finally, 375 mg twice daily from weeks 25-36.
as §2, with “implemented. The Clinician's Interview Based Impression of Change (CIBIC), a subjective observational index also used in efficacy trials of acetylcholinesterase inhibitors, was conducted at baseline and at weeks 12, 24 and 36 by an independent researcher who was not part of the study team. Blood samples for measurement of plasma Aβ and plasma zinc and copper were all taken four weekly, by antecubital fossa venepuncture.” for “implemented.”

[2] = Safety measures / adverse event reporting in the Phase II trial; assay type: in vivo, human
Experimental: (§3) Standard adverse event reporting to a safety monitoring committee, consisting of physicians independent of the study, was conducted to review adverse events at three monthly intervals and on an emergent basis. Following baseline, safety visits were conducted at weeks 2, 4, 8, 12, 16, 20, 24, 26, 28, 32 and 36. The patient and carer were questioned about any changes which might have occurred in the patient's health or medications since the last visit. Standard biochemical, renal and liver function, full blood examination, serum vitamin B12 and folate levels, blood pressure and weight were documented at each visit. A neurological examination was conducted at each visit to assess for peripheral neuropathy and optic neuropathy, and visual evoked responses, nerve conduction studies and a full ophthalmic examination (visual acuity, colour vision, fundal examination and visual field) were conducted at screening, at week 18 and at two weeks after trial completion. An ECG was performed at baseline and at weeks 12 and 24.

plasma Aβ42 = assay: Phase II clinical trial: plasma Aβ42; assay type: in vivo, human
Experimental: as §1, §2

plasma Aβ40 = assay: Phase II clinical trial: plasma Aβ40; assay type: in vivo, human
Experimental: as §1, §2

[3] = Nerve conduction studies (peripheral nerve latency) in the Phase II trial; assay type: in vivo, human
Experimental: as §1, §3

plasma Cu = assay: Phase II clinical trial: plasma copper; assay type: in vivo, human; settings: administration of CQ vs placebo
Experimental: as §1, §2

Which results are given for Oc1c(I)cc(Cl)c2cccnc12 [CQ, iodochlorhydroxyquin]?
rise of plasma Zn levels (plasma Zn; CQ, Phase II trial): 30%; total plasma Zn (plasma Zn; administration of CQ vs placebo): significant elevation; effect on Aβ deposits in transgenic mice (Aβ accumulation; 30 mg/kg body weight by gavage (Cherny et al., 2001)): effective; inhibiting Aβ accumulation in transgenic mice (Aβ accumulation; 20-30 mg/kg orally daily, five days per week, two to three months): markedly effective; increase in ADAS-Cog scores ([1]; less-severely affected patients): only small increases; increase in ADAS-Cog scores ([1]; more severely-affected patients): negligible increase; effect of treatment on ADAS-Cog ([1]; more-severely affected group (baseline ADAS-Cog≧25), CQ vs placebo): statistically significant; also recorded: significant effect on preventing cognitive decline; primary clinical outcome of efficacy, ADAS-Cog change from baseline ([1]; whole cohort, CQ vs placebo, 36 weeks, on donepezil): trend; overall safety and tolerability ([2]; 36 weeks, 250-750 mg/day): safe and well tolerated; non-attributable serious adverse event (hospitalization) ([2]; CQ arm): syncope due to impaired cardiac function; albumin ([2]; CQ arm, group LFT changes): fell significantly; γ-GT, AST, ALT and bilirubin ([2]; CQ arm, group LFT changes): small significant elevation; reduction in haemoglobin ([2]; CQ arm, week 24, p=0.003): 6.88 g/L; reduction in haemoglobin ([2]; CQ arm, week 36, p=0.03): 5.5 g/L; adverse haematological events ([2]; CQ-treated subjects): no adverse haematological events; risk of impairment in visual acuity, colour vision, visual fields or fundoscopic abnormalities ([2]; between the two arms, McNemar's test): no significant differences; overt symptoms or signs of impaired liver function ([2]; changes at week 24 returning to normal by week 36): No subject developed any overt symptoms or signs of impaired liver function; likelihood of changes in liver function tests (LFT) ([2]; patients on CQ vs placebo): more likely; likelihood to develop diarrhoea ([2]; patients on CQ vs placebo): less likely; Abdominal pain, subjects ([2]; treatment arm n = 18): 2; Constipation, subjects ([2]; treatment arm n = 18): 2; Decreased vitamin B12, subjects ([2]; treatment arm n = 18): 0; Diarrhoea, subjects ([2]; treatment arm n = 18): 1; Impaired nerve conduction, subjects ([2]; treatment arm n = 18): 3; Impaired reflexes, subjects ([2]; treatment arm n = 18): 1; Lymphopoenia, subjects ([2]; treatment arm n = 18): 0; Microalbuminurea, subjects ([2]; treatment arm n = 18): 5; Nausea, subjects ([2]; treatment arm n = 18): 2; Numb legs, subjects ([2]; treatment arm n = 18): 2; Postural Dizziness, subjects ([2]; treatment arm n = 18): 7; Postural Hypotension, subjects ([2]; treatment arm n = 18): 12; Postural Tachyardia, subjects ([2]; treatment arm n = 18): 12; Raised bilirubin, subjects ([2]; treatment arm n = 18): 2; Raised γGT, subjects ([2]; treatment arm n = 18): 2; Subjects with +1 postural symptom ([2]; treatment arm n = 18): 13; Subjects with =1 GI symptom ([2]; treatment arm n = 18): 5; Subjects with =1 abnormal LFT ([2]; treatment arm n = 18): 4; Subjects with =1 neurological symptom ([2]; treatment arm n = 18): 6; Mean number discrete Adverse Events Per subject ([2]; treatment arm, 61/18): 3.38; number of attributable events reported ([2]; treatment group, n = 18): 61; Abdominal pain, Relative Risk ([2]; treatment vs placebo): 2.0; Diarrhoea, Relative Risk ([2]; treatment vs placebo): 0.25; Impaired nerve conduction, Relative Risk ([2]; treatment vs placebo): 3.0; Impaired reflexes, Relative Risk ([2]; treatment vs placebo): 0.5; Microalbuminurea, Relative Risk ([2]; treatment vs placebo): 1.00; Postural Dizziness, Relative Risk ([2]; treatment vs placebo): 2.33; Postural Hypotension, Relative Risk ([2]; treatment vs placebo): 1.09; Raised γGT, Relative Risk ([2]; treatment vs placebo): 2.0; Subjects with +1 postural symptom, Relative Risk ([2]; treatment vs placebo): 0.93; Subjects with =1 GI symptom, Relative Risk ([2]; treatment vs placebo): 1.25; Subjects with =1 abnormal LFT, Relative Risk ([2]; treatment vs placebo): 4.0; Subjects with =1 neurological symptom, Relative Risk ([2]; treatment vs placebo): 1.5; Mean number discrete Adverse Events Per subject, Mean diff ([2]; treatment vs placebo, p = 0.327): 0.611; change in plasma Aβ42 (plasma Aβ42; CQ-treated group, lowering from week 20 onwards, placebo increased): declined; also recorded: very significant lowering; plasma Aβ42 changes by severity (plasma Aβ42; less-severely affected individuals compared with more-severely affected): more evident; plasma Aβ40 levels (plasma Aβ40; compared with Aβ42 trends, CQ vs placebo): overall similar trends; plasma Aβ40, placebo vs CQ groups (plasma Aβ40; weeks 8, 32 and 36, less-severely affected groups): significant differences; calf latency (baseline)-calf latency (week 20), Mean within-group change ([3]; Pair 1, paired difference, unit assumed): 0.575 ms; calf latency (baseline)-calf latency (week 36), Mean within-group change ([3]; Pair 2, paired difference, in ms (unit assumed)): .7937; wrist 1 latency week 1-wrist 1 latency week 20, Mean within-group change ([3]; Pair 3, paired difference, in ms (unit assumed)): .5824; wrist 1 latency week 1-wrist 1 latency week 36, Mean within-group change ([3]; Pair 4, paired difference, in ms (unit assumed)): .7875; wrist 2 latency week 1-wrist 2 latency week 20, Mean within-group change ([3]; Pair 5, paired difference, in ms (unit assumed)): 1.000E−01; wrist 2 latency week 1-wrist 2 latency week 36, Mean within-group change ([3]; Pair 6, paired difference, in ms (unit assumed)): .2429; between group differences in nerve conduction parameters ([3]; detailed analyses, to week 36): no significant between group differences; risk of displaying abnormal nerve conduction ([3]; subjects on CQ vs placebo): increased risk; plasma Cu (plasma Cu): no effect
